Measurements taken from patent US12077503B2, “Substituted cyclic amides and their use as herbicides” (FMC CORPORATION, priority 2015, dated 2024).

Assays:
Format in all cases: in vivo
[1] = test system: ryegrass, Italian (Italian ryegrass, Lolium multiflorum); assay: Test A preemergence; conditions: Lolium multiflorum, pre-emergence, 240 h, Preemergence; for pest or weed control at 31 g/ha: 31 g ai/ha, 0 to 100 scale where 0 is no effect and 100 is complete control, read-out: Ryegrass, Italian plant response rating; for pest or weed control at 125 g/ha: 125 g ai/ha, 0 to 100 scale (0 no effect, 100 complete control), read-out: Plant response rating, Ryegrass, Italian
In short: (§1)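 Treatment is preemergence as a directed soil spray after planting, or postemergence at the one- to two-leaf stage, with test chemical in a non-phytotoxic solvent mixture plus surfactant. Plants stay in the greenhouse about 10 d before visual injury scoring on a 0 to 100 scale versus untreated controls.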

[2] = test system: giant foxtail (Setaria faberii); assay: Test A preemergence; conditions: Setaria faberi, pre-emergence, 240 h, Preemergence; for pest or weed control at 31 g/ha: 31 g ai/ha, 0 to 100 scale where 0 is no effect and 100 is complete control, read-out: Foxtail, Giant plant response rating; for pest or weed control at 125 g/ha: 125 g ai/ha, 0 to 100 scale (0 no effect, 100 complete control), read-out: Plant response rating, Foxtail, Giant
In short: as §1

[3] = test system: pigweed (Amaranthus retroflexus); assay: Test A preemergence; conditions: Amaranthus retroflexus, pre-emergence, 240 h, Preemergence; for pest or weed control at 31 g/ha: 31 g ai/ha, 0 to 100 scale where 0 is no effect and 100 is complete control, read-out: Pigweed plant response rating; for pest or weed control at 125 g/ha: 125 g ai/ha, 0 to 100 scale (0 no effect, 100 complete control), read-out: Plant response rating, Pigweed
[4] = test system: ragweed (common ragweed, Ambrosia elatior); assay: Test A preemergence; conditions: Ambrosia artemisiifolia, pre-emergence, 240 h, Preemergence; for pest or weed control at 31 g/ha: 31 g ai/ha, 0 to 100 scale where 0 is no effect and 100 is complete control, read-out: Ragweed plant response rating; for pest or weed control at 125 g/ha: 125 g ai/ha, 0 to 100 scale (0 no effect, 100 complete control), read-out: Plant response rating, Ragweed
In short: as §1

Kochia (Kochia scoparia) [5] = assay: Test A preemergence; conditions: Bassia scoparia, pre-emergence, 240 h, Preemergence; for pest or weed control at 31 g/ha: 31 g ai/ha, 0 to 100 scale where 0 is no effect and 100 is complete control, read-out: Kochia plant response rating; for pest or weed control at 125 g/ha: 125 g ai/ha, 0 to 100 scale (0 no effect, 100 complete control), read-out: Plant response rating, Kochia
In short: as §1

[6] = test system: barnyardgrass (Echinochloa crus-galli); assay: Test A preemergence; conditions: Echinochloa crus-galli, pre-emergence, 240 h, Preemergence; for pest or weed control at 31 g/ha: 31 g ai/ha, 0 to 100 scale where 0 is no effect and 100 is complete control, read-out: Barnyardgrass plant response rating; for pest or weed control at 125 g/ha: 125 g ai/ha, 0 to 100 scale (0 no effect, 100 complete control), read-out: Plant response rating, Barnyardgrass
In short: as §1

[7] = test system: blackgrass (Alopecurus myosuroides); assay: Test A postemergence; conditions: Alopecurus myosuroides, post-emergence, 240 h, Postemergence, read-out: Blackgrass plant response rating (0 to 100 scale); for pest or weed control at 125 g/ha: 125 g ai/ha, visual rating about 10 d after treatment; for pest or weed control at 31 g/ha: 31 g ai/ha, 0 is no effect, 100 is complete control
In short: as §1

[8] = test system: ryegrass, Italian (Italian ryegrass, Lolium multiflorum); assay: Test A postemergence; conditions: Lolium multiflorum, post-emergence, 240 h, Postemergence, read-out: Ryegrass, Italian plant response rating (0 to 100 scale); for pest or weed control at 125 g/ha: 125 g ai/ha, visual rating about 10 d after treatment; for pest or weed control at 31 g/ha: 31 g ai/ha, 0 is no effect, 100 is complete control
In short: as §1

[9] = test system: Galium (catchweed bedstraw, Galium aparine); assay: Test A postemergence; conditions: Galium, post-emergence, 240 h, Postemergence, read-out: Galium plant response rating (0 to 100 scale); for pest or weed control at 125 g/ha: 125 g ai/ha, visual rating about 10 d after treatment; for pest or weed control at 31 g/ha: 31 g ai/ha, 0 is no effect, 100 is complete control
In short: as §1

[10] = test system: giant foxtail (Setaria faberii); assay: Test A postemergence; conditions: Setaria faberi, post-emergence, 240 h, Postemergence, read-out: Foxtail, Giant plant response rating (0 to 100 scale); for pest or weed control at 125 g/ha: 125 g ai/ha, visual rating about 10 d after treatment; for pest or weed control at 31 g/ha: 31 g ai/ha, 0 is no effect, 100 is complete control
In short: as §1

[11] = test system: pigweed (Amaranthus retroflexus); assay: Test A postemergence; conditions: Amaranthus retroflexus, post-emergence, 240 h, Postemergence, read-out: Pigweed plant response rating (0 to 100 scale); for pest or weed control at 125 g/ha: 125 g ai/ha, visual rating about 10 d after treatment; for pest or weed control at 31 g/ha: 31 g ai/ha, 0 is no effect, 100 is complete control
In short: as §1

[12] = test system: ragweed (common ragweed, Ambrosia elatior); assay: Test A postemergence; conditions: Ambrosia artemisiifolia, post-emergence, 240 h, Postemergence, read-out: Ragweed plant response rating (0 to 100 scale); for pest or weed control at 125 g/ha: 125 g ai/ha, visual rating about 10 d after treatment; for pest or weed control at 31 g/ha: 31 g ai/ha, 0 is no effect, 100 is complete control
In short: as §1

Kochia (Kochia scoparia) [13] = assay: Test A postemergence; conditions: Bassia scoparia, post-emergence, 240 h, Postemergence, read-out: Kochia plant response rating (0 to 100 scale); for pest or weed control at 125 g/ha: 125 g ai/ha, visual rating about 10 d after treatment; for pest or weed control at 31 g/ha: 31 g ai/ha, 0 is no effect, 100 is complete control
In short: as §1

[14] = test system: wheat (Triticum aestivum); assay: Test A postemergence; conditions: Triticum aestivum, post-emergence, 240 h, Postemergence, read-out: Wheat plant response rating (0 to 100 scale); for plant injury at 125 g/ha: 125 g ai/ha, visual rating about 10 d after treatment; for plant injury at 31 g/ha: 31 g ai/ha, 0 is no effect, 100 is complete control
In short: as §1

corn (Zea mays) = assay: Test A postemergence; conditions: Zea mays, post-emergence, 240 h, Postemergence, read-out: Corn plant response rating (0 to 100 scale); for plant injury at 125 g/ha: 125 g ai/ha, visual rating about 10 d after treatment; for plant injury at 31 g/ha: 31 g ai/ha, 0 is no effect, 100 is complete control
In short: as §1

[15] = test system: barnyardgrass (Echinochloa crus-galli); assay: Test A postemergence; conditions: Echinochloa crus-galli, post-emergence, 240 h, Postemergence; for pest or weed control at 125 g/ha: 125 g ai/ha, visual rating about 10 d after treatment, read-out: Barnyardgrass plant response rating (0 to 100 scale, 0 no effect, 100 complete control); for pest or weed control at 31 g/ha: 31 g ai/ha, 0 is no effect, 100 is complete control, read-out: Barnyardgrass plant response rating (0 to 100 scale)
In short: as §1

[16] = test system: ducksalad (Heteranthera limosa); assay: Test B flooded paddy test; conditions: Heteranthera limosa, 360 h, Flood, 250 g ai/ha; visually evaluated after 13 to 15 d; read-out: Plant response rating, Ducksalad (0 to 100 scale where 0 is no effect and 100 is complete control)
In short: (§2)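 Compound goes directly into floodwater once pots are flooded 3 cm above soil, targeting plants at two leaves; the water depth is then held for the test duration. Plants sit 13–15 d in a greenhouse and are rated visually, 100 denoting complete control.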

rice (Oryra sativa) = assay: Test B flooded paddy test; conditions: Oryza sativa, 360 h, Flood, 250 g ai/ha; visually evaluated after 13 to 15 d; read-out: Plant response rating, Rice (0 to 100 scale where 0 is no effect and 100 is complete control)
In short: as §2

[17] = test system: sedge, umbrella (small-flower umbrella sedge, Cyperus difformis); assay: Test B flooded paddy test; conditions: Cyperus difformis, 360 h, Flood, 250 g ai/ha; visually evaluated after 13 to 15 d; read-out: Plant response rating, Sedge, Umbrella (0 to 100 scale where 0 is no effect and 100 is complete control)
In short: as §2

[18] = test system: barnyardgrass (Echinochloa crus-galli); assay: Test B flooded paddy test; conditions: Echinochloa crus-galli, 360 h, Flood, 250 g ai/ha; visually evaluated after 13 to 15 d; read-out: Plant response rating, Barnyardgrass (0 to 100 scale where 0 is no effect and 100 is complete control)
In short: as §2

Row | Compound | pest or weed control at 31 g/ha [1] [%] | pest or weed control at 125 g/ha [1] [%] | pest or weed control at 31 g/ha [2] [%] | pest or weed control at 125 g/ha [2] [%] | pest or weed control at 31 g/ha [3] [%] | pest or weed control at 125 g/ha [3] [%] | pest or weed control at 31 g/ha [4] [%] | pest or weed control at 125 g/ha [4] [%] | pest or weed control at 31 g/ha (Kochia (Kochia scoparia) [5]) [%] | pest or weed control at 125 g/ha (Kochia (Kochia scoparia) [5]) [%] | pest or weed control at 31 g/ha [6] [%] | pest or weed control at 125 g/ha [6] [%] | pest or weed control at 125 g/ha [7] [%] | pest or weed control at 31 g/ha [7] [%] | pest or weed control at 125 g/ha [8] [%] | pest or weed control at 31 g/ha [8] [%] | pest or weed control at 125 g/ha [9] [%] | pest or weed control at 31 g/ha [9] [%] | pest or weed control at 125 g/ha [10] [%] | pest or weed control at 31 g/ha [10] [%] | also measured
1 | CC(C)=Cc1cc([C@H]2CN(C)C(=O)[C@@H]2C(=O)Nc2cccc(F)c2F)ccc1C(F)(F)F [Compound 1337] | 20 | 70 | 40 | 80 | 0 | 0 | 0 | 0 | 0 | 0 | 50 | 80 | 0 | 0 | 20 | 0 | 0 | 0 | 40 | 20 | pest or weed control at 125 g/ha [11]: 20%; pest or weed control at 31 g/ha [11]: 0%; pest or weed control at 125 g/ha [12]: 0%; pest or weed control at 31 g/ha [12]: 0%; pest or weed control at 125 g/ha (Kochia (Kochia scoparia) [13]): 20%; pest or weed control at 31 g/ha (Kochia (Kochia scoparia) [13]): 20%; plant injury at 125 g/ha [14]: 20%; plant injury at 31 g/ha [14]: 0%; plant injury at 125 g/ha (corn (Zea mays)): 0%; plant injury at 31 g/ha (corn (Zea mays)): 0%; pest or weed control at 125 g/ha [15]: 30%; pest or weed control at 31 g/ha [15]: 20%; pest or weed control at 250 g/ha [16]: 20%; pest or weed control at 250 g/ha (rice (Oryra sativa)): 20%; pest or weed control at 250 g/ha [17]: 0%; pest or weed control at 250 g/ha [18]: 20%
2 | COc1c([C@H]2CN(C)C(=O)[C@@H]2C(=O)Nc2ccccc2F)cccc1C(F)(F)F [Compound 1338] | 0 | 0 | 80 | 90 | 0 | 0 | 0 | 0 | 0 | 0 | 90 | 100 | 0 | 0 | 0 | 0 | 30 | 0 | 80 | 50 | pest or weed control at 125 g/ha [11]: 0%; pest or weed control at 31 g/ha [11]: 0%; pest or weed control at 125 g/ha [12]: 0%; pest or weed control at 31 g/ha [12]: 0%; pest or weed control at 125 g/ha (Kochia (Kochia scoparia) [13]): 0%; pest or weed control at 31 g/ha (Kochia (Kochia scoparia) [13]): 0%; plant injury at 125 g/ha [14]: 0%; plant injury at 31 g/ha [14]: 0%; plant injury at 125 g/ha (corn (Zea mays)): 0%; plant injury at 31 g/ha (corn (Zea mays)): 0%; pest or weed control at 125 g/ha [15]: 80%; pest or weed control at 31 g/ha [15]: 70%; pest or weed control at 250 g/ha [16]: 100%; pest or weed control at 250 g/ha (rice (Oryra sativa)): 25%; pest or weed control at 250 g/ha [17]: 0%; pest or weed control at 250 g/ha [18]: 90%
